The numbers were not newly measured in patent publication US20160088844A1 (priority 2013, published 2016), which cites them from elsewhere.

This series concerns roots of plants; seeds of a variety of species. To be noted: in vivo.

The structures appear in SMILES notation.

`Cn1c(=O)c2c(ncn2C)n(C)c1=O` [caffeine]: the “mitosis in the roots of plants” value is listed as “inhibit mitosis” and the “seed germination in a variety of species” value is on record as “inhibit seed germination”.
